Experimental data published in the supplement of paper PMC4932681.

How the values were obtained:
[1] = test system: BT-474 Tam1; assay: drug sensitivity score (DSS) (DSS (dimensionless)); higher = more sensitive; extreme values may be limits of the assay; conditions: 4-OH-tamoxifen in medium 1 µM; 72 h
Method: (§1)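 FIMM FO2B library drugs were tested at 5 concentrations (10,000-fold range) for 72 h, with CellTiter-Glo viability normalised to DMSO and benzethonium chloride controls. The Drug Sensitivity Score (DSS) is computed from the fitted logistic dose-response curve (area-based; 0 = inactive). Resistant lines and the 'in 1µM tamoxifen' arms were tested in 1 µM 4-OH-tamoxifen.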

[2] = test system: ZR-75-1; assay: as above; conditions: 72 h
Method: as §1

[3] = test system: T-47D Tam1; assay: as above; conditions: 4-OH-tamoxifen in medium 1 µM; 72 h
Method: as §1

[4] = test system: BT-474; assay: as above; conditions: 72 h
Method: as §1

[5] = test system: T-47D; assay: as above; conditions: 72 h
Method: as §1

[6] = test system: MCF-7; assay: as above; conditions: 72 h
Method: as §1

[7] = test system: BT-474 Tam2; assay: as above; conditions: 4-OH-tamoxifen in medium 1 µM; 72 h
Method: as §1

[8] = test system: MCF-7 Tam1; assay: as above; conditions: 4-OH-tamoxifen in medium 1 µM; 72 h
Method: as §1

[9] = test system: ZR-75-1 Tam2; assay: as above; conditions: 4-OH-tamoxifen in medium 1 µM; 72 h
Method: as §1

[10] = test system: ZR-75-1 Tam1; assay: as above; conditions: 4-OH-tamoxifen in medium 1 µM; 72 h
Method: as §1

[11] = test system: T-47D Tam2; assay: as above; conditions: 4-OH-tamoxifen in medium 1 µM; 72 h
Method: as §1

[12] = test system: BT-474 Tam1; assay: relative IC50 (midpoint of fitted logistic curve, plateau may be below 50% inhibition; CellTiter-Glo viability); higher = less potent; conditions: 4-OH-tamoxifen in medium 1 µM; 72 h
Method: (§2)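 FIMM FO2B library drugs were plated at 5 concentrations spanning a 10,000-fold range in 384-well plates. Cells were incubated for 72 h at 37 °C and viability was read by CellTiter-Glo, normalised to DMSO (0% inhibition) and 100 µM benzethonium chloride (100% inhibition). IC50 values come from logistic dose-response fits (Breeze pipeline). Tamoxifen-resistant lines and the 'in 1µM tamoxifen' parental arms were tested in medium with 1 µM 4-OH-tamoxifen.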

[13] = test system: ZR-75-1; assay: as above; conditions: 72 h
Method: as §2

[14] = test system: BT-474; assay: as above; conditions: 72 h
Method: as §2

[15] = test system: T-47D; assay: as above; conditions: 72 h
Method: as §2

[16] = test system: MCF-7; assay: as above; conditions: 72 h
Method: as §2

[17] = test system: BT-474 Tam2; assay: as above; conditions: 4-OH-tamoxifen in medium 1 µM; 72 h
Method: as §2

[18] = test system: MCF-7 Tam1; assay: as above; conditions: 4-OH-tamoxifen in medium 1 µM; 72 h
Method: as §2

[19] = test system: ZR-75-1 Tam2; assay: as above; conditions: 4-OH-tamoxifen in medium 1 µM; 72 h
Method: as §2

[20] = test system: ZR-75-1 Tam1; assay: as above; conditions: 4-OH-tamoxifen in medium 1 µM; 72 h
Method: as §2

[21] = test system: T-47D Tam1; assay: as above; conditions: 4-OH-tamoxifen in medium 1 µM; 72 h
Method: as §2

relative IC50 [12] | relative IC50 ([14]; 4-OH-tamoxifen in medium 0 µM) | relative IC50 ([14]; 4-OH-tamoxifen in medium 1 µM) | relative IC50 ([15]; 4-OH-tamoxifen in medium 0 µM) | relative IC50 ([15]; 4-OH-tamoxifen in medium 1 µM) | relative IC50 ([16]; 4-OH-tamoxifen in medium 0 µM) | relative IC50 [17] | relative IC50 [18] | relative IC50 ([16]; 4-OH-tamoxifen in medium 1 µM) | SMILES | drug sensitivity score [1] | drug sensitivity score ([2]; 4-OH-tamoxifen in medium 0 µM) | drug sensitivity score ([2]; 4-OH-tamoxifen in medium 1 µM) | drug sensitivity score [3] | drug sensitivity score ([4]; 4-OH-tamoxifen in medium 0 µM) | drug sensitivity score ([4]; 4-OH-tamoxifen in medium 1 µM) | drug sensitivity score ([5]; 4-OH-tamoxifen in medium 0 µM) | drug sensitivity score ([5]; 4-OH-tamoxifen in medium 1 µM) | drug sensitivity score ([6]; 4-OH-tamoxifen in medium 0 µM) | drug sensitivity score ([6]; 4-OH-tamoxifen in medium 1 µM) | drug sensitivity score [7] | drug sensitivity score [8] | drug sensitivity score [9] | drug sensitivity score [10] | drug sensitivity score [11] | relative IC50 ([13]; 4-OH-tamoxifen in medium 0 µM) | relative IC50 ([13]; 4-OH-tamoxifen in medium 1 µM) | relative IC50 [19] | relative IC50 [20] | relative IC50 [21]
2.12 nM | 13.4 nM | 5.56 nM | > 1000 nM | > 1000 nM | > 1000 nM | 3.4 nM | > 1000 nM |  | C=CC(=O)N1CCC[C@@H](n2nc(-c3ccc(Oc4ccccc4)cc3)c3c(N)ncnc32)C1 | 31.9 | 0 | 0 | 2.76 | 18.1 | 26.2 | 0 | 0 | 0 | 2.36 | 29 | 0 | 0 | 0 | 0.549 | > 1000 nM | > 1000 nM | > 1000 nM | > 1000 nM | 
> 10000 nM | > 10000 nM | > 10000 nM | > 10000 nM |  | 1890 nM | > 10000 nM |  |  | Cn1cc(C2=Nc3cc(NC(=O)C(N)C4CCCCC4)cc4c3C2=CNNC4=O)cn1 (configuration not stated) | 0 | 0 | 0 | 4.76 | 0 | 0 | 0 | 0.174 | 2.19 | 0.0458 | 0 | 0 | 0 | 0 | 2.29 | > 10000 nM | > 10000 nM | > 10000 nM | > 10000 nM | 1410 nM
 | 2500 nM | 2750 nM |  | > 10000 nM |  |  | > 10000 nM |  | COc1cc2c(cc1O)CC[C@@H]1[C@@H]2CC[C@]2(C)[C@@H](O)CC[C@@H]12 [2-methoxyestradiol  (Panzem)] | 0.83 | 1.28 | 0 | 0.761 | 3.19 | 3.93 | 0.97 | 0 | 3.15 | 0.767 | 0.943 | 0 | 0 | 0 | 1.01 | 4130 nM | > 10000 nM | > 10000 nM | > 10000 nM | 
> 1000 nM | > 1000 nM | > 1000 nM | > 1000 nM |  | 129 nM | > 1000 nM | > 1000 nM | > 1000 nM | NC(=O)Nc1cc(-c2cccc(F)c2)sc1C(=O)N[C@H]1CCCNC1 [AZD7762] | 0 | 0 | 0 | 3 | 0 | 0 | 0 | 2 | 3.41 | 0 | 0 | 0 | 0 | 0 | 2.77 |  | > 1000 nM | > 1000 nM | > 1000 nM | 
> 10000 nM |  |  |  | > 10000 nM | 2960 nM |  | > 10000 nM | > 10000 nM | Nc1ncn([C@@H]2O[C@H](CO)[C@@H](O)[C@H]2O)c(=O)n1 [Azacitidine] | 0 | 0.0144 | 0 | 0.8 | 0.0007 | 0.194 | 0.134 | 0 | 1.55 | 0 | 0.198 | 0 | 0 | 0.0216 | 0.867 |  | > 10000 nM | > 10000 nM |  | 
> 1000 nM | > 1000 nM | > 1000 nM | > 1000 nM | > 1000 nM | > 1000 nM | > 1000 nM | > 1000 nM | > 1000 nM | Nc1nc(Cl)nc2c1ncn2[C@H]1C[C@H](O)[C@@H](CO)O1 [Cladribine] | 0 | 0.0944 | 0.126 | 0.899 | 0 | 0 | 0 | 0 | 0 | 0 | 0 | 0 | 1.16 | 0.538 | 0 |  |  |  |  | 
 | > 10000 nM |  |  | > 10000 nM |  | > 10000 nM | > 10000 nM |  | Cc1ccc(-n2nc(C(C)(C)C)cc2NC(=O)Nc2ccc(OCCN3CCOCC3)c3ccccc23)cc1 [Doramapimod (BIRB 796)] | 1.04 | 0 | 0 | 0.342 | 0 | 0.211 | 0 | 0 | 0.173 | 0.239 | 0 | 0 | 0 | 0 | 1.06 | > 10000 nM | > 10000 nM | > 10000 nM | > 10000 nM | 

SMILES | relative IC50 [12] | relative IC50 ([14]; 4-OH-tamoxifen in medium 0 µM) | relative IC50 ([14]; 4-OH-tamoxifen in medium 1 µM) | relative IC50 ([15]; 4-OH-tamoxifen in medium 0 µM) | relative IC50 ([15]; 4-OH-tamoxifen in medium 1 µM) | relative IC50 ([16]; 4-OH-tamoxifen in medium 0 µM) | relative IC50 [17] | relative IC50 [18] | relative IC50 ([16]; 4-OH-tamoxifen in medium 1 µM) | drug sensitivity score [1] | drug sensitivity score ([2]; 4-OH-tamoxifen in medium 0 µM) | drug sensitivity score ([2]; 4-OH-tamoxifen in medium 1 µM) | drug sensitivity score [3] | drug sensitivity score ([4]; 4-OH-tamoxifen in medium 0 µM) | drug sensitivity score ([4]; 4-OH-tamoxifen in medium 1 µM) | drug sensitivity score ([5]; 4-OH-tamoxifen in medium 0 µM) | drug sensitivity score ([5]; 4-OH-tamoxifen in medium 1 µM) | drug sensitivity score ([6]; 4-OH-tamoxifen in medium 0 µM) | drug sensitivity score ([6]; 4-OH-tamoxifen in medium 1 µM) | drug sensitivity score [7] | drug sensitivity score [8] | drug sensitivity score [9] | drug sensitivity score [10] | drug sensitivity score [11] | relative IC50 ([13]; 4-OH-tamoxifen in medium 0 µM) | relative IC50 ([13]; 4-OH-tamoxifen in medium 1 µM) | relative IC50 [19] | relative IC50 [20] | relative IC50 [21]
Cc1sc2c(c1C)C(c1ccc(Cl)cc1)=N[C@@H](CC(=O)OC(C)(C)C)c1nnc(C)n1-2 [(+)JQ1] | 1140 nM | 136 nM | 1060 nM | 345 nM |  | 189 nM | 1120 nM |  | 851 nM | 8.34 | 3.81 | 4.27 | 11 | 6.3 | 7.87 | 5.63 | 2.13 | 12.8 | 6.92 | 8.29 | 0.216 | 6.24 | 7.1 | 2.91 |  | 359 nM | 336 nM | 238 nM | 146 nM
